The source of these data is PubChem BioAssay AID1935 (Broad Institute, 2009).

Structures are written as SMILES. Inconclusive results are not listed. The source made the active and inactive calls. How the calls were made is not given here.

The subject of the test is BJ-TERT-LT-ST fibroblast viability, ATP luminescence. Description: cytotoxicity toward BJ-TERT-LT-ST fibroblasts, dose response, cell-based, RAS-independent, luminescence (AID 1935).

By EC50 is commonly meant the concentration that produces a half-maximal response. As to `CCc1ccc(/C=C2/SC(=S)N(CCC(=O)NCCCN3CCOCC3)C2=O)cc1`, the EC50 is > 15 µM (inactive).
The result for `CCc1ccc(/C=C2\SC(=S)N(CCC(=O)NCCCN3CCOCC3)C2=O)cc1` reads > 15 µM (inactive).
